According to ChEMBL document CHEMBL3112495, “Diphenylpyridylethanamine (DPPE)-based aminoheterocycles as cholesteryl ester transfer protein inhibitors” (Bioorg Med Chem Lett, 2014):

How the values were obtained:
Mus musculus = assay: Inhibition of CETP in hCETP/apo B-100 transgenic mouse at 30 mg/kg, po after 8 hrs; assay type: functional
[1] = Plasma concentration in hCETP/apo B-100 transgenic mouse at 30 mg/kg, po after 2 hrs; assay type: ADME, organism-based; set-up: dose 30 mg/kg, route oral
[2] = AUC in hCETP/apo B-100 transgenic mouse at 30 mg/kg, po; assay type: ADME, organism-based; set-up: dose 30 mg/kg, route oral; details: plasma
[3] = Plasma concentration in hCETP/apo B-100 transgenic mouse at 30 mg/kg, po after 4 hrs; assay type: ADME, organism-based; set-up: dose 30 mg/kg, route oral
Cytochrome P450 1A2 = molecular target: T1, Cytochrome P450 1A2 (Homo sapiens, UniProt P05177); assay: Inhibition of CYP1A2 (unknown origin); assay type: ADME
T1 sequence (P05177 whole entry): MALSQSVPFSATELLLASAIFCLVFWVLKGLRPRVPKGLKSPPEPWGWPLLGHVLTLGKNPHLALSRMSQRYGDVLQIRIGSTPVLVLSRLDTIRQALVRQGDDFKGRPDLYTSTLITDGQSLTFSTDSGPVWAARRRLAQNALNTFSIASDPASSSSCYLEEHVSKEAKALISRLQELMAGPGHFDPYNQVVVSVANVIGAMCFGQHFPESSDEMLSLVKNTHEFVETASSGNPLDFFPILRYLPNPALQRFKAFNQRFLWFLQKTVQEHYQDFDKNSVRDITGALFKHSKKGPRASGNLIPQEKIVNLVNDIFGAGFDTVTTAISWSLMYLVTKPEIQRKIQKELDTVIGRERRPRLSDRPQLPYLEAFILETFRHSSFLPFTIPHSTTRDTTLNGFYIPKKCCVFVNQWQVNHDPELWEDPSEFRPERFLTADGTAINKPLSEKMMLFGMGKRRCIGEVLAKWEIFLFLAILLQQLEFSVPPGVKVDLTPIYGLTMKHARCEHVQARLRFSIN

[4] = molecular target: T2, Nuclear receptor subfamily 1 group I member 2 (Homo sapiens, UniProt O75469); assay: Activation of PXR (unknown origin)
T2 sequence (O75469 whole entry): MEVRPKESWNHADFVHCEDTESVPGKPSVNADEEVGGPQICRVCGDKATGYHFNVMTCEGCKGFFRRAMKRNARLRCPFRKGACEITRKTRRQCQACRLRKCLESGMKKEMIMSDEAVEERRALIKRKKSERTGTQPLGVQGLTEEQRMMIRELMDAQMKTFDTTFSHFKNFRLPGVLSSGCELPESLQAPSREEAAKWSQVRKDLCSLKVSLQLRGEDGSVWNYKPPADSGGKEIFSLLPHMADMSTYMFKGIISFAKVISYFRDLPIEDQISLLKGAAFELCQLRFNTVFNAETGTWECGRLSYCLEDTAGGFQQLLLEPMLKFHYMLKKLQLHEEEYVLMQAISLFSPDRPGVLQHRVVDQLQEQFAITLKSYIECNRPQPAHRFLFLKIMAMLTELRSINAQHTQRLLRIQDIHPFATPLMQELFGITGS

Cytochrome P450 3A4 [5] = molecular target: T3, Cytochrome P450 3A4 (Homo sapiens, UniProt P08684); assay: Inhibition of CYP3A4 (unknown origin) using 7-benzyloxy-4-trifluoromethylcoumarin as substrate; assay type: ADME
T3 sequence (P08684 whole entry): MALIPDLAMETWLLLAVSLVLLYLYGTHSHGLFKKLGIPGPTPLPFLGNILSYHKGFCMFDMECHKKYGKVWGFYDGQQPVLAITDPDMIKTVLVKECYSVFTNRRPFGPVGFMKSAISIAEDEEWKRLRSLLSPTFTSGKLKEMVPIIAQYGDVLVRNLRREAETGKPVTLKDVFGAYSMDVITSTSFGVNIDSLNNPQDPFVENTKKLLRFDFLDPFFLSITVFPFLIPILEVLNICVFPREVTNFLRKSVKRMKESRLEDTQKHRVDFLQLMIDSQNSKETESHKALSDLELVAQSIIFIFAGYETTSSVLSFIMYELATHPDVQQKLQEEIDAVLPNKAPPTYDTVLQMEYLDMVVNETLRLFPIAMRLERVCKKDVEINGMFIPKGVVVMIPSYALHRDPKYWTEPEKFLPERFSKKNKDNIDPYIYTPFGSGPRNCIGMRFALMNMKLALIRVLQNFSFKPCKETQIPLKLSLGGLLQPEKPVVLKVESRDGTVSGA

Cytochrome P450 3A4 [6] = molecular target: T3, Cytochrome P450 3A4; assay: Inhibition of CYP3A4 (unknown origin) using benzyloxyresorufin as substrate; assay type: ADME
Cytochrome P450 2D6 = Cytochrome P450 2D6 (Homo sapiens, UniProt P10635); assay: Inhibition of CYP2D6 (unknown origin); assay type: ADME
Chain of Cytochrome P450 2D6 (P10635 whole entry): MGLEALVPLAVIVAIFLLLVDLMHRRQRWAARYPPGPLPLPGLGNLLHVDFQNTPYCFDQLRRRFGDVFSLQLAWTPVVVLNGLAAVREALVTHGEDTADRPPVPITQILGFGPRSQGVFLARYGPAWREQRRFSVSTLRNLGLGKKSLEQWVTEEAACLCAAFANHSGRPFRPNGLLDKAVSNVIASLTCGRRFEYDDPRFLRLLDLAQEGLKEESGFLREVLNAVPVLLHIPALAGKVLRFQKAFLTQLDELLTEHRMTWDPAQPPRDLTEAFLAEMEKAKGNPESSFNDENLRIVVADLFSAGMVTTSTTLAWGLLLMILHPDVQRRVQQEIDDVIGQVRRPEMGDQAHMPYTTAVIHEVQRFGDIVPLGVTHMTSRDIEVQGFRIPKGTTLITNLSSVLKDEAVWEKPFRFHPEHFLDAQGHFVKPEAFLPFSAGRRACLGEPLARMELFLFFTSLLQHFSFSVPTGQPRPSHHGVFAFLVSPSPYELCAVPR

[7] = Metabolic stability of the compound in human liver microsomes assessed as compound remaining after 10 mins; assay type: ADME; details: read-out: Stability
[8] = Metabolic stability of the compound in mouse liver microsomes assessed as compound remaining after 10 mins; assay type: ADME, Microsome; details: read-out: Stability
[9] = Metabolic stability of the compound in rat liver microsomes assessed as compound remaining after 10 mins; assay type: ADME; details: read-out: Stability
Cytochrome P450 2C19 = Cytochrome P450 2C19 (Homo sapiens, UniProt P33261); assay: Inhibition of CYP2C19 (unknown origin); assay type: ADME
Chain of Cytochrome P450 2C19 (P33261 whole entry): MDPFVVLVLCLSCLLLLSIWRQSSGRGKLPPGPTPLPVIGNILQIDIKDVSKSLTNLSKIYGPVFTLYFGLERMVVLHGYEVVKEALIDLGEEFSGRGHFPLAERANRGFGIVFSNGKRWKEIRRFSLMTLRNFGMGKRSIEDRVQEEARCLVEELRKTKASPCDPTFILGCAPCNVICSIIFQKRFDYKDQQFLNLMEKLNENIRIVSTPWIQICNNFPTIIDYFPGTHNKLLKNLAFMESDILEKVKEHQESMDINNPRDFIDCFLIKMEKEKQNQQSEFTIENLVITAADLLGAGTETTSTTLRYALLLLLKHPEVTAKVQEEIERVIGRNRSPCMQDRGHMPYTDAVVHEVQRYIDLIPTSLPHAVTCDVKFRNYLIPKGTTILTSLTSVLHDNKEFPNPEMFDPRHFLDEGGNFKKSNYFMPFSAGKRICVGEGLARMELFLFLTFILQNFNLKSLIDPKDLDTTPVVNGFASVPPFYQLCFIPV

PXR = molecular target: T4, PXR (Homo sapiens, UniProt O75469); assay: Activation of PXR (unknown origin) relative to rifampicin
T4 sequence (O75469 whole entry): T2 sequence (O75469 whole entry)

Cytochrome P450 2C9 = Cytochrome P450 2C9 (Homo sapiens, UniProt P11712); assay: Inhibition of CYP2C9 (unknown origin); assay type: ADME
Chain of Cytochrome P450 2C9 (P11712 whole entry): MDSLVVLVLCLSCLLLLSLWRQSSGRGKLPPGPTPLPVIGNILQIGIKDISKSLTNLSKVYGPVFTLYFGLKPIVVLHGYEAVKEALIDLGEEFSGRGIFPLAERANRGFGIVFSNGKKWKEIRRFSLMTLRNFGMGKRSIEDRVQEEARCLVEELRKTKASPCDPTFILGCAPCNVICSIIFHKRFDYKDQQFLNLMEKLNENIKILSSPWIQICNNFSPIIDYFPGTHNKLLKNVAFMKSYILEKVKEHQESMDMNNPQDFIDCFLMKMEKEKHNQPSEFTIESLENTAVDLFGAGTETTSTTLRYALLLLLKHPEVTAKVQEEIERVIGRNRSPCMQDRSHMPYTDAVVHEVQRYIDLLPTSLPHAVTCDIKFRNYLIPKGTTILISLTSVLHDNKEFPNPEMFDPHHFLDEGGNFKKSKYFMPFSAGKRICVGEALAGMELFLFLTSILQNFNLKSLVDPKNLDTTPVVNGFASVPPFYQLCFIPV

[10] = molecular target: T5, Cholesteryl ester transfer protein (Homo sapiens, UniProt P11597); assay: Inhibition of human recombinant CETP using [3H]-CE/HDL by scintillation proximity assay
T5 sequence (P11597 whole entry): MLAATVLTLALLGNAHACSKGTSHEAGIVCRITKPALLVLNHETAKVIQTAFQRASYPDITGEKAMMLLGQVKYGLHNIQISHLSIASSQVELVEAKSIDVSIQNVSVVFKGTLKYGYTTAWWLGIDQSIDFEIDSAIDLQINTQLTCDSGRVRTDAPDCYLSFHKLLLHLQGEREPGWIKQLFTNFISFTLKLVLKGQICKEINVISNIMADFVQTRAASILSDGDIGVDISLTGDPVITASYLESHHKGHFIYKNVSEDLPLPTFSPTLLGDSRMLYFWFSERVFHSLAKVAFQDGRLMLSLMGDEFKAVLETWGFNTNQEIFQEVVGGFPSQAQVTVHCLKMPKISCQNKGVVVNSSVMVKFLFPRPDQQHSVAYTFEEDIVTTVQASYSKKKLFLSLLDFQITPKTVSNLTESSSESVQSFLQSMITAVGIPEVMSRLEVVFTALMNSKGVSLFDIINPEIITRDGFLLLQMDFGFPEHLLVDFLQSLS

[11] = molecular target: T5, Cholesteryl ester transfer protein; assay: Inhibition of CETP in human whole plasma using [3H]-CE/HDL after 10 mins
[12] = Plasma concentration in hCETP/apo B-100 transgenic mouse at 30 mg/kg, po after 8 hrs; assay type: ADME, organism-based; set-up: dose 30 mg/kg, route oral

SMILES | concentration at 2 h [1] | AUC [2] | concentration at 4 h [3] | IC50 (Cytochrome P450 1A2) | EC60 [4] | IC50 (Cytochrome P450 3A4 [5]) | IC50 (Cytochrome P450 3A4 [6]) | IC50 (Cytochrome P450 2D6) | remaining at 10 min [7] | remaining at 10 min [8] | remaining at 10 min [9] | IC50 (Cytochrome P450 2C19) | Emax (PXR) | IC50 (Cytochrome P450 2C9) | IC50 [10] | IC50 [11] | concentration at 8 h [12] | inhibition in vivo at 30 mg/kg (Mus musculus)
O=C(NC1CCCC1)N[C@@](Cc1ccccc1)(c1cc(F)cc(C(F)(F)F)c1)c1ccc(Cl)cn1 | 1750 nM | 5.71 µM·h | 1010 nM |  |  |  |  |  |  |  |  |  |  |  |  |  |  | 56%
O=C(NC1CCCC1)N[C@@](Cc1ccccc1)(c1cc(F)cc(OC(F)(F)C(F)F)c1)c1ccc(Cl)cn1 |  |  |  | 40 µM | 0.7 µM | 8.8 µM | 3.6 µM | 15 µM | 10% | 4% | 12% | 17 µM | 88% | 4.4 µM |  |  |  | 
Fc1cc(OC(F)(F)C(F)F)cc([C@@](Cc2ccccc2)(Nc2nc3cc(F)ccc3[nH]2)c2ccc(Cl)cn2)c1 |  |  |  | 40 µM | > 17 µM | 32 µM | 40 µM | 29 µM | 56% | 62% | 95% | 2 µM | 56% | 40 µM | 0.05 µM | 9.5 µM |  | 
Fc1cc(OC(F)(F)C(F)F)cc([C@@](Cc2ccccc2)(Nc2nc3ccccc3[nH]2)c2ccc(Cl)cn2)c1 |  |  |  | 40 µM | > 17 µM | 40 µM | 13 µM | 40 µM |  |  |  | 3 µM | 70% | 19 µM | 0.09 µM | 15 µM |  | 
Fc1cc(OC(F)(F)C(F)F)cc([C@@](Cc2ccccc2)(Nc2nc(C(F)(F)F)cs2)c2ccc(Cl)cn2)c1 |  |  |  | 40 µM | > 17 µM | 40 µM | 40 µM | 40 µM | 98% | 78% | 83% | 13 µM | 45% | 40 µM | 0.22 µM | 14.8 µM |  | 
Fc1cc(C(F)(F)F)cc([C@](Cc2ccccc2)(Nc2nc3c(s2)CCCC3)c2ccc(Cl)cn2)c1 |  |  |  |  |  |  |  |  |  |  |  |  |  |  | 10.8 µM |  |  | 
Cc1nc(N[C@@](Cc2ccccc2)(c2cc(F)cc(C(F)(F)F)c2)c2ccc(Cl)cn2)sc1C |  |  |  |  |  |  |  |  |  |  |  |  |  |  | 12.2 µM |  |  | 

More lines, in order of falling IC50 [10], values ahead:

concentration at 2 h [1] | AUC [2] | concentration at 4 h [3] | IC50 (Cytochrome P450 1A2) | EC60 [4] | IC50 (Cytochrome P450 3A4 [5]) | IC50 (Cytochrome P450 3A4 [6]) | IC50 (Cytochrome P450 2D6) | remaining at 10 min [7] | remaining at 10 min [8] | remaining at 10 min [9] | IC50 (Cytochrome P450 2C19) | Emax (PXR) | IC50 (Cytochrome P450 2C9) | IC50 [10] | IC50 [11] | concentration at 8 h [12] | SMILES | inhibition in vivo at 30 mg/kg (Mus musculus)
 |  |  | 40 µM | > 5.6 µM | 24 µM | 19 µM | 40 µM | 68% | 72% | 100% | 3 µM | 25% | 15 µM | 0.04 µM | 6.4 µM |  | Fc1cc(OC(F)(F)C(F)F)cc([C@@](Cc2ccccc2)(Nc2nc3c(F)cc(F)cc3[nH]2)c2ccc(Cl)cn2)c1 | 
 |  |  | > 40 µM | > 5.6 µM | > 40 µM | > 40 µM | > 40 µM | 100% | 100% | 95% | > 40 µM | 37% | > 40 µM | 0.04 µM | 6.5 µM |  | Fc1cc(OC(F)(F)C(F)F)cc([C@@](Cc2ccccc2)(Nc2nc(C(F)(F)F)c(Br)s2)c2ccc(Cl)cn2)c1 | 
 |  |  |  |  |  |  |  |  |  |  |  |  |  | 0.04 µM | 5.5 µM |  | Cc1nc(N[C@](Cc2ccccc2)(c2cc(F)cc(OC(F)(F)C(F)F)c2)c2ccc(Cl)cn2)sc1C | 
2530 nM | 8.18 µM·h | 1240 nM |  |  |  |  |  | 73% | 33% | 56% |  |  |  | 0.04 µM | 8.2 µM | 142 nM | Fc1cc(C(F)(F)F)cc([C@@](Cc2ccccc2)(Nc2nc3c(s2)CCC3)c2ccc(Cl)cn2)c1 | 26%
 |  |  |  |  |  |  |  |  |  |  |  |  |  | 0.04 µM | 17.3 µM |  | Cc1nc(N[C@](Cc2ccccc2)(c2cc(F)cc(C(F)(F)F)c2)c2ccc(Cl)cn2)sc1C | 
 |  |  | > 40 µM | > 5.6 µM | > 40 µM | > 40 µM | > 40 µM | 82% | 59% | 55% | > 40 µM | 44% | > 40 µM | 0.02 µM | 3.2 µM |  | Cc1sc(N[C@](Cc2ccccc2)(c2cc(F)cc(OC(F)(F)C(F)F)c2)c2ccc(Cl)cn2)nc1C(F)(F)F | 
 |  |  |  |  |  |  |  |  |  |  |  |  |  | 0.02 µM | 4.2 µM |  | Fc1cc(OC(F)(F)C(F)F)cc([C@@](Cc2ccccc2)(Nc2nc3c(s2)CCCC3)c2ccc(Cl)cn2)c1 | 
